Laboratory results from patent US11130960B2, “Methods for conferring or enhancing herbicide resistance on plants and/or alga with protoporphyrinogen oxidase variants” (FARM HANNONG CO., LTD., priority 2014, dated 2021).

Tests used:
CyPPO2 = test: Growth of transformed BT3(ΔPPO) E. coli in LB liquid medium (OD600); assay type: cell-based, Oscillatoria nigro-viridis PCC 7112; settings: 37° C., OD600 over culture time
Protocol: (§1) In Example 3, herbicide resistance of respective BT3(ΔPPO) strains transformed with the wild-type AtPPO1, mutant AtPPO1, CyPPO2, CyPPO4 or CyPPO8 gene was investigated on agar media containing different herbicides, and in this Example, herbicide resistance of the strains was investigated in LB liquid media containing different herbicides.
(§2) HV-50 autoclave from Hirayama, HS2100A electronic scale from Hansung Instrument, CB-30V clean bench from Jeio Tech, JSI-200CL incubator from JSR, MQ-200 photometer from Apogee, and 1210 type UV-visible spectrophotometer from Thermo Fisher Scientific were used. The autoclave was used under conditions of 121° C. and 15 minutes, and the incubator was used at 37° C. with lighting of 160˜200 μmol m^−2s^−1 for a culture time of 13.5 hours. The UV-visible spectrophotometer was used at 600 nm.
(§3) Tiafenacil (M.W. 511.87 g/mol), Saflufenacil (M.W. 500.85 g/mol), and Fomesafen (M.W. 438.76 g/mol) used in the experiment were purchased from Dongbu Farm Hannong Co., Ltd, Sigma, and Sigma, respectively. These drugs were prepared at 200 mM concentration in 100% acetone, and stored at −20° C., respectively. Luria-Bertani(LB) medium (10 g/L of Bacto-Tryptone, 5 g/L of Yeast extract, 10 g/L of sodium chloride) and an antibiotic Chloramphenicol (Duchefa) were used.
(§4) For seed culture of E. coli transformed with respective genes, single colonies thereof were cultured in 3 ml of LB broth containing chloramphenicol for 12 hours, and they were diluted with LB broth to absorbance (OD600) of 1.5. Next, chloramphenicol and 500 μl of the seed culture of the transformed E. coli were added to 250 ml of LB liquid medium, and 50 ml of the culture was added to each 250 ml-flask. Each flask was treated with varying concentrations (0, 10 μM, 50 μM, 100 μM) of herbicide stocks (Tiafenacil, Saflufenacil, Fomesafen), and then incubated at 37° C. and 200 rpm. Absorbance (OD600) was measured using a spectrophotometer every 1.5 hours. The experiment was repeated three times, and mean values thereof were given in a graph. Error bars represent standard error of three repeats.

CyPPO8 = test: as above; assay type: cell-based, Halothece sp. PCC 7418; settings: 37° C., OD600 over culture time
Protocol: as §1, §2
Tiafenacil (M.W. 511.87 g/mol), Saflufenacil (M.W. 500.85 g/mol), and Fomesafen (M.W. 438.76 g/mol) used in the experiment were purchased from Dongbu Farm Hannong Co., Ltd, Sigma, and Sigma, respectively. […]
For seed culture of E. coli transformed with respective genes, single colonies thereof were cultured in 3 ml of LB broth containing chloramphenicol for 12 hours, and they were diluted with LB broth to absorbance (OD600) of 1.5. […] Absorbance (OD600) was measured using a spectrophotometer every 1.5 hours. […]

CyPPO4 = test: as above; assay type: cell-based, Lyngbya sp. PCC 8106; settings: 37° C., OD600 over culture time
Protocol: as §1, §2, §3, §4

Mutant AtPPO1 = target: T1, Mutant AtPPO1 (Arabidopsis thaliana, UniProt P55826, S305L/Y426M); test: as above; assay type: cell-based; settings: 37° C., OD600 over culture time
T1 construct: expressed in transfected cells; host or cells: E. coli BT3(ΔPPO), pACBB vector
Protocol: as §1, §2, §3, §4

wild-type AtPPO1 = target: T2, wild-type AtPPO1 (Arabidopsis thaliana, UniProt P55826); test: as above; assay type: cell-based; settings: 37° C., OD600 over culture time
T2 construct: expressed in transfected cells; host or cells: E. coli BT3(ΔPPO), pACBB vector
T2 sequence (P55826 35-537): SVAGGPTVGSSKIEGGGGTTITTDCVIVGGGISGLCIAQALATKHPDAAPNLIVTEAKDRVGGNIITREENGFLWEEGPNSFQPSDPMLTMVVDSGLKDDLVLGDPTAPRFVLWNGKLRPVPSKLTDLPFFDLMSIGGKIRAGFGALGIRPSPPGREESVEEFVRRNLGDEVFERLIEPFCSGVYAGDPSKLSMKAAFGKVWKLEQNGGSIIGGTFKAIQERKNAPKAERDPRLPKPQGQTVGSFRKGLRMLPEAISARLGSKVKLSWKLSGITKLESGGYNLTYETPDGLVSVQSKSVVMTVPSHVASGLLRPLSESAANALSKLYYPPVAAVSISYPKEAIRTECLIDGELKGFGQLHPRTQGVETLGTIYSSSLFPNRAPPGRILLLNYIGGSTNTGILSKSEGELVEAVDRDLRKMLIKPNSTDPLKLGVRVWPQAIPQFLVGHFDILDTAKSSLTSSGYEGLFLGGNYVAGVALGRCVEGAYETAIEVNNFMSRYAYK
Protocol: as §1, §2, §3, §4

wild-type Col-0 plants = test: Herbicide spray test on Arabidopsis thaliana plants; assay type: in vivo; settings: for outcome of plants at 7 days after spraying: 2-3 ml of 0.5 μM Tiafenacil, 1 μM Saflufenacil, or 3 μM Fomesafen per plant grown about 4 weeks
Protocol: To examine resistance of the transplanted T1 plants against PPO-based herbicides, the plants were grown for about 3-4 weeks, and then treated with herbicides prior to flower stalk elongation. […] Therefore, 1 μM tiafenacil was evenly applied at an amount proper for the number of plant individuals. After 7 days, resistance of the transformants against PPO-based herbicides was examined.
To examine whether herbicide resistance traits are maintained in the next generations of plants, respective T2 generation plants of Arabidopsis thaliana which were transformed with CyPPO2, CyPPO4 and CyPPO8 genes were subjected to an herbicide resistance test. 2-3 ml of 0.5 μM Tiafenacil, 1 μM Saflufenacil, or 3 μM Fomesafen was sprayed onto each Arabidopsis thaliana plant grown for about 4 weeks.

T1 sequence (P55826 35-537 S305L/Y426M): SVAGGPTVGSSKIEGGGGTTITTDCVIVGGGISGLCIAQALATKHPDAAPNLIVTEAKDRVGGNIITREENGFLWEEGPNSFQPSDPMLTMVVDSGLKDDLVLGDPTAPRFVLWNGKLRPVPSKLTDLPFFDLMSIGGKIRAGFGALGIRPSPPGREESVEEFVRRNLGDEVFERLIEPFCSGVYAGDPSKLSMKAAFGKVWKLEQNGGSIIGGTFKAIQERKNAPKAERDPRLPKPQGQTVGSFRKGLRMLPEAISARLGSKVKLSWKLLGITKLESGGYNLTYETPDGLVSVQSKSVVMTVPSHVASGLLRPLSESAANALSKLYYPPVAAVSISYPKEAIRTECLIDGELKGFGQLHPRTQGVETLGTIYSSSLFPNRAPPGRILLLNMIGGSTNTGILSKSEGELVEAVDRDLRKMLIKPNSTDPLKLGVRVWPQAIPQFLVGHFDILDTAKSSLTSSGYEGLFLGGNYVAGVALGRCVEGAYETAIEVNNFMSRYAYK

`CS(=O)(=O)NC(=O)c1cc(Oc2ccc(C(F)(F)F)cc2Cl)ccc1[N+](=O)[O-]` [Fomesafen] was tested, and the “concentration by which the strain normally grew” value (CyPPO2) was ≤ 100 µM, the “concentration by which the strain normally grew” value (CyPPO8) was ≤ 100 µM and the “concentration by which the strain normally grew” value (CyPPO4) was ≤ 100 µM. For the same compound, the “concentration by which the strain normally grew” value (Mutant AtPPO1) was ≤ 100 µM, the “concentration at which growth inhibition began” value (wild-type AtPPO1) was 50 µM and the “outcome of plants at 7 days after spraying” value (shortened to “outcome of plants at 7 days”) (wild-type Col-0 plants) was “killed”.

In the case of `CC(C)N(C)S(=O)(=O)NC(=O)c1cc(-n2c(=O)cc(C(F)(F)F)n(C)c2=O)c(F)cc1Cl` [Saflufenacil], the “concentration by which the strain normally grew” value (CyPPO2) is reported as ≤ 100 µM, the “concentration by which the strain normally grew” value (CyPPO8) is reported as ≤ 100 µM and the “concentration by which the strain normally grew” value (CyPPO4) is reported as ≤ 100 µM. For the same compound, the “concentration by which the strain normally grew” value (Mutant AtPPO1) was ≤ 100 µM, the “concentration at which the strain hardly grew” value (wild-type AtPPO1) was ≥ 10 µM and the “outcome of plants at 7 days” value (wild-type Col-0 plants) was “killed”.

In the case of `COC(=O)CCNC(=O)C(C)Sc1cc(-n2c(=O)cc(C(F)(F)F)n(C)c2=O)c(F)cc1Cl` (stereo not shown) [Tiafenacil], the “concentration by which the strain normally grew” value (CyPPO2) is reported as ≤ 100 µM, the “concentration by which the strain normally grew” value (CyPPO4) is reported as ≤ 100 µM and the “concentration at which growth inhibition was observed” value (Mutant AtPPO1) is reported as ≥ 50 µM. The “concentration at which the strain grew” value (Mutant AtPPO1) was 10 µM, the “concentration at which the strain hardly grew” value (wild-type AtPPO1) was ≥ 10 µM and the “outcome of plants at 7 days” value (wild-type Col-0 plants) was “killed”. The “outcome of plants after herbicide treatment” value (wild-type Col-0 plants; 2-3 ml of 1 μM tiafenacil (+0.05% Silwet L-77) per plant) was “killed”.
